Several values for one entry are separate records, joined by “and”; a condition that tells them apart may be missing. Equal entries are not always repeated.
How the values were obtained:
Canidae [1] = settings: chronic; duration: 2 years; oral; diet; M/F; Dog Other; kidney and spleen pathology
Rattus norvegicus [2] = settings: Hershberger; duration: 10 days; oral; gavage; Sprague-Dawley; inactive + Negative + Negative + neither + negative
Canidae [3] = settings: chronic; duration: 24 months; oral; diet; Dog Other; Kidney: Lesions
Canidae [4] = settings: acute; duration: 10 minutes; inhalation; unknown; Dog Other; Whole Body: Seizures
Rattus norvegicus [5] = settings: inhalation
Mus musculus [6] = settings: subchronic, oral, M/F
Mus musculus [7] = settings: subchronic, oral, M/F, CD1, Hepatic
Mus musculus [8] = settings: subchronic, duration: 90 days, oral, M/F, CD1, hepatic
Rattus norvegicus [9] = tested on: Rattus norvegicus
Oryctolagus sp. = settings: acute; dermal; occlusive; New Zealand
Rattus norvegicus [10] = settings: for LD50 / NOAEL: oral, gavage; for NOAEL: reproduction developmental
Rattus norvegicus [11] = assay: LC0; higher = less toxic; settings: acute
Rattus norvegicus [12] = settings: chronic; inhalation; M/F; nasal epithelial lesions
Mus musculus [13] = tested on: Mus musculus
Rattus norvegicus [14] = settings: chronic; duration: 2 years; oral; drinking water; Kidney: Altered weight + Whole body: Altered weight
Cavia porcellus = settings: acute; oral; Guinea Pig
[15] = reproduction developmental, duration: 9 days, F, Crl:CD(SD), generation: P0, P0: Skin: Stained Fur + P0: Whole Body: Body Weight Change + P0: Whole Body: Convulsions + P0: Whole Body: Feed Consumption, Absolute
[16] = reproduction developmental, duration: 9 days, M/F, Crl:CD(SD), generation: F1, F1: Whole Body: Pup Weight Relative to Litter
[17] = reproduction developmental, duration: 107 days, M, Crj:CD, generation: P0, P0: Whole Body: Clonic Seizures + P0: Whole Body: Mortality
[18] = reproduction developmental, duration: 121 days, F, Crl:CD(SD), generation: P0, P0: Liver: Liver Weight, Absolute + P0: Liver: Liver Weight, Relative + P0: Pituitary: Pituitary Gland Weight, Absolute + P0: Pituitary: …
[19] = subchronic, duration: 90 days, F, Crl:CD(SD) BR, Blood: Albumin (A) + Renal: Urine Osmolality + Renal: Urine Volume (UVOL) + Whole Body: Motor Activity
[20] = subchronic, duration: 90 days, F, Crl:CD(SD) BR, Central Nervous System: Abnormal Behavior
[21] = subchronic, duration: 90 days, M, Crl:CD(SD) BR, Blood: Albumin (A) + Whole Body: Motor Activity
[22] = subchronic, duration: 90 days, M, Crl:CD(SD) BR, Central Nervous System: Abnormal Behavior
[23] = drinking water, clinical serum chemistry (effects on erythrocytes and reduced humoral immune status)
[24] = reduced rbc, packed cell volume and hemoglobin
[25] = gavage, dyspnea, abnormal appearance, liver enlargement

In the case of `CNC(=O)ON=C(C)SC` [Methomyl], the LEL (Canidae [1]) is reported as 10 mg/kg-day, the NOEL (Canidae [1]) is reported as 2.5 mg/kg-day and the NOEL (Rattus norvegicus [2]) is reported as 1 mg/kg-day. For the same compound, the NOEL (Canidae [3]) was 2.5 mg/kg-day.
`FC(C(F)C(F)(F)C(F)(F)F)C(F)(F)F` (centres undefined) [2H,3H-Decafluoropentane] gave an LOAEL (Canidae [4]) of 103000 mg/m3, an NOAEL (Canidae [4]) of 51500 mg/m3 and an NOAEL (Rattus norvegicus [5]; reproduction developmental, duration: 9 days, F, Crl:CD(SD), generation: P0, P0: Ovary: Corpora Lutea + P0: Uterus: Implantation + P0: Uterus: Uterine Weight, Gravid) of 35800 mg/m3. The LOAEL (Rattus norvegicus [5]; [15]) was 20000 mg/m3, the NOAEL (Rattus norvegicus [5]; [15]) was 5170 mg/m3 and the NOAEL (Rattus norvegicus [5]; reproduction developmental, duration: 9 days, M/F, Crl:CD(SD), generation: F1, F1: Multi-Organ: Soft Tissue Examinations + F1: Skeleton: Skeletal Examinations + F1: Uterus: Resorptions, Early + F1: Uterus: Resorptions, …) was 35800 mg/m3. It also gave an LOAEL (Rattus norvegicus [5]; [16]) of 35800 mg/m3, an NOAEL (Rattus norvegicus [5]; [16]) of 20000 mg/m3 and an NOAEL (Rattus norvegicus [5]; reproduction developmental, duration: 107 days, M, Crj:CD, generation: P0, P0: Liver: Liver Weight, Absolute + P0: Liver: Liver Weight, Relative + P0: Pituitary: Pituitary Gland Weight, Absolute + P0: Pituitary: …) of 36100 mg/m3. For the same compound, the LOAEL (Rattus norvegicus [5]; [17]) was 36100 mg/m3, the NOAEL (Rattus norvegicus [5]; [17]) was 20600 mg/m3 and the LOAEL (Rattus norvegicus [5]; [18]) was 36100 mg/m3. For the same compound, the NOAEL (Rattus norvegicus [5]; [18]) was 20600 mg/m3, the NOAEL (Rattus norvegicus [5]; reproduction developmental, duration: 121 days, F, Crl:CD(SD), generation: P0, P0: Uterus: Implantation + P0: Whole Body: Fertility Index + P0: Whole Body: Maternal Body Weight + P0: Whole Body: Maternal Body Weight …) was 36100 mg/m3 and the NOAEL (Rattus norvegicus [5]; reproduction developmental, duration: 121 days, M/F, Crl:CD(SD), generation: F1, F1: Whole Body: Necropsy Appeared Normal + F1: Whole Body: Pup Weight Relative to Litter + F1: Whole Body: Survival + F1: Whole Body: …) was 36100 mg/m3. For the same compound, the NOAEL (Rattus norvegicus [5]; subchronic, duration: 90 days, F, Crl:CD(SD) BR, Adrenal: Adrenal Gland Histopathology + Adrenal: Adrenal Gland Weight, Absolute + Adrenal: Adrenal Gland Weight, Relative + Brain: Brain …) was 36100 mg/m3, the LOAEL (Rattus norvegicus [5]; [19]) was 36100 mg/m3 and the NOAEL (Rattus norvegicus [5]; [19]) was 20600 mg/m3. For the same compound, the LOAEL (Rattus norvegicus [5]; [20]) was 20600 mg/m3, the NOAEL (Rattus norvegicus [5]; [20]) was 5150 mg/m3 and the NOAEL (Rattus norvegicus [5]; subchronic, duration: 90 days, M, Crl:CD(SD) BR, Adrenal: Adrenal Gland Histopathology + Adrenal: Adrenal Gland Weight, Absolute + Adrenal: Adrenal Gland Weight, Relative + Brain: Brain …) was 36100 mg/m3. For the same compound, the LOAEL (Rattus norvegicus [5]; [21]) was 36100 mg/m3, the NOAEL (Rattus norvegicus [5]; [21]) was 20600 mg/m3 and the LOAEL (Rattus norvegicus [5]; [22]) was 20600 mg/m3. It also gave an NOAEL (Rattus norvegicus [5]; [22]) of 5150 mg/m3.
Compound `ClCC(Cl)Cl` [1,1,2-Trichloroethane] has an LOAEL (Mus musculus [6]; [23]) of 44 mg/kg-day, an NOAEL (Mus musculus [6]; [23]) of 3.9 mg/kg-day and an NOAEL (Mus musculus [7]; duration: 90 days, drinking water, Other) of 3.9 mg/kg-day. For the same compound, the NOAEL (Mus musculus [8]; drinking water, immunological) was 3.9 mg/kg-day, the LOAEL (Rattus norvegicus [9]; acute, duration: 4 hours, inhalation, whole body, M/F, Fischer 344, respiratory) was 316 mg/m3 and the NOAEL (Rattus norvegicus [9]; acute, duration: 1 days, oral, gavage, M, Sprague-Dawley, hepatic) was 46 mg/kg-day.
For `Cc1cccnc1` [3-Methylpyridine], the LD50 (Oryctolagus sp.) was ≥ 126 mg/kg and ≤ 200 mg/kg, the LC50 (Rattus norvegicus [10]; acute, inhalation, Sprague-Dawley) was under 11.8 mg/mL and the LD50 (Rattus norvegicus [10]; acute, Fischer 344) was 630 mg/kg. For the same compound, the LD50 (Rattus norvegicus [10]; acute, Sprague-Dawley) was 710 mg/kg, the LOAEL (Rattus norvegicus [10]; short-term, duration: 2 weeks, inhalation, Crl:CD(SD) BR) was 1100 mg/m3 and the LC0 (Rattus norvegicus [11]; inhalation, Crl:CD(SD) BR) was ≥ 4950 mg/m3 and ≤ 12600 mg/m3.
`C=COC(C)=O` [Vinyl acetate] was tested, and the LOAEL (Rattus norvegicus [12]) was 704 mg/m3, the NOAEL (Rattus norvegicus [12]) was 176 mg/m3 and the NOAEL (Rattus norvegicus [9]; chronic, duration: 104 weeks, inhalation, whole body, M/F, Crl:CD(SD)BR Sprague-Dawley, respiratory) was 174 mg/m3. The NOAEL (Rattus norvegicus [9]; short-term, duration: 4 weeks, inhalation, whole body, M, Sprague-Dawley (Crl:CD BR), respiratory) was 703 mg/m3, the NOAEL (Rattus norvegicus [9]; short-term, duration: 5 days, inhalation, whole body, M, Sprague-Dawley (Crl:CD BR), respiratory) was 703 mg/m3 and the NOAEL (Mus musculus [13]; chronic, duration: 104 weeks, inhalation, intermittent, Nasal cavity: Lesions) was 176 mg/m3. It also gave an NOAEL (Rattus norvegicus [14]) of 100 mg/kg-day.
`c1ccc2c(c1)Cc1ccccc1-2` [Fluorene] was tested, and the LOAEL (Mus musculus [6]; [24]) was 250 mg/kg-day, the NOAEL (Mus musculus [6]; [24]) was 125 mg/kg-day and the LOAEL (Mus musculus [8]; gavage) was 125 mg/kg-day. It also gave an NOAEL (Mus musculus [13]; subchronic, duration: 13 weeks, oral, gavage, Erythrocytes: Decreased counts) of 125 mg/kg-day.
Compound `Clc1ccc2ccccc2c1` [2-Chloronaphthalene] has an LOAEL (Mus musculus [6]; [25]) of 600 mg/kg-day, an NOAEL (Mus musculus [6]; [25]) of 250 mg/kg-day and an NOAEL (Mus musculus [7]; duration: 13 weeks, gavage, Respiratory) of 250 mg/kg-day.
For `Nc1ccc(C=Cc2ccc(N)cc2S(=O)(=O)O)c(S(=O)(=O)O)c1` [4,4'-Diamino-2,2'-stilbenedisulfonic acid], the LD50 (Cavia porcellus) was 47000 mg/kg, the NOAEL (Rattus norvegicus [10]; Sprague-Dawley, generation: F0) was 1000 mg/kg-day and the NOAEL (Rattus norvegicus [10]; Sprague-Dawley, generation: F1) was 1000 mg/kg-day. The LC0 (Rattus norvegicus [11]; oral, Sprague-Dawley) was 3000 mg/kg.

— EPA's ToxValDB 9.5
